In ChEMBL document CHEMBL1135137, “Synthesis and pharmacological characterization of a potent, orally active p38 kinase inhibitor” (Bioorg Med Chem Lett, 2002):
Values after ≈ are worked out from the molar mass of the structure shown. Values belong to the molecule of their own block, whether it stands above or below them.

Columns and labels:
[1] = molecular target: Mitogen-activated protein kinase 14 (Homo sapiens, UniProt Q16539); experiment: Inhibitory activity against Mitogen-activated protein kinase p38 alpha 2
Mitogen-activated protein kinase 14, sequence (Q16539 whole entry): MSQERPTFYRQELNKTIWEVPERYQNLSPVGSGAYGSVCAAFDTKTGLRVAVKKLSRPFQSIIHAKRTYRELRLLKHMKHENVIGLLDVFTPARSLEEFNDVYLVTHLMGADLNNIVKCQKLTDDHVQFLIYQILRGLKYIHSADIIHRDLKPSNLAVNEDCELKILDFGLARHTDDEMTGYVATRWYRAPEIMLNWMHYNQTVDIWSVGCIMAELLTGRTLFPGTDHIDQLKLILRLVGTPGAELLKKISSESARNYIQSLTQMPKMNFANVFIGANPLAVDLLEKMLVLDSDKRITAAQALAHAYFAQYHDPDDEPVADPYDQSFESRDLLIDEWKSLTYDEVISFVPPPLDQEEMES

SW1353 = experiment: TNF-alpha-induced IL-6 production in SW1353 cells; assay type: functional, cell-based; conditions: Homo sapiens
[2] = Solubility at pH 2.0; assay type: physicochemical; conditions: buffer
[3] = molecular target: Tyrosine-protein kinase ABL (Homo sapiens) (UniProt P00519+P42684); experiment: Inhibition of Abl tyrosine kinase at 5 uM; assay type: protein assay
Tyrosine-protein kinase ABL (Homo sapiens), sequence (P00519 whole entry, looked up): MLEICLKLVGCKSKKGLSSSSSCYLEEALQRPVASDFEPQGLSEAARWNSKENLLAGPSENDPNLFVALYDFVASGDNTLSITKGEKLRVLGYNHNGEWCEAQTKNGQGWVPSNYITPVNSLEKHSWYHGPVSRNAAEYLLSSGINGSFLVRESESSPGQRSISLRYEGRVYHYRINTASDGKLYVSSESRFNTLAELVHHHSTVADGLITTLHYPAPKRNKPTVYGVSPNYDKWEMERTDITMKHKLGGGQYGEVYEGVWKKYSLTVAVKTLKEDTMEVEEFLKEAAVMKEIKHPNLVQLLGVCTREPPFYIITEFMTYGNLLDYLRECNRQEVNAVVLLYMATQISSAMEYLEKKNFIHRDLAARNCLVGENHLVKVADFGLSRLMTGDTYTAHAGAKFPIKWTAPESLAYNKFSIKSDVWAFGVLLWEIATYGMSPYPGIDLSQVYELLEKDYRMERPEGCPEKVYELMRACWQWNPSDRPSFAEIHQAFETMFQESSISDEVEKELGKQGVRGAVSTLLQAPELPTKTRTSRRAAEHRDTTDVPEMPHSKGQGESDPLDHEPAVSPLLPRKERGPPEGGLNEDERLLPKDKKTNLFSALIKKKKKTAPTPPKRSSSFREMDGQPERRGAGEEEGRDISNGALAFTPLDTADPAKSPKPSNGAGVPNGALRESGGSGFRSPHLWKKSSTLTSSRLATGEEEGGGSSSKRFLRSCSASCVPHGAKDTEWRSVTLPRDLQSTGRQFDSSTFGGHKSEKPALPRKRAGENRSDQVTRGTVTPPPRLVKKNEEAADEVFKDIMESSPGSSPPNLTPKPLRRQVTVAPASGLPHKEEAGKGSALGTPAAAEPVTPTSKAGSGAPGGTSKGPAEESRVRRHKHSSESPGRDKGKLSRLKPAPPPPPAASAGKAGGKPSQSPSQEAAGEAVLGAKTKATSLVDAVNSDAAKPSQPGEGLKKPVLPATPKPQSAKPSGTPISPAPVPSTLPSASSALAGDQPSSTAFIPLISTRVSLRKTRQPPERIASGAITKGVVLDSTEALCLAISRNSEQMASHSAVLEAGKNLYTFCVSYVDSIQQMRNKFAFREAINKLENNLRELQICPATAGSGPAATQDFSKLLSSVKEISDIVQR
Tyrosine-protein kinase ABL (Homo sapiens), sequence (P42684 whole entry, looked up): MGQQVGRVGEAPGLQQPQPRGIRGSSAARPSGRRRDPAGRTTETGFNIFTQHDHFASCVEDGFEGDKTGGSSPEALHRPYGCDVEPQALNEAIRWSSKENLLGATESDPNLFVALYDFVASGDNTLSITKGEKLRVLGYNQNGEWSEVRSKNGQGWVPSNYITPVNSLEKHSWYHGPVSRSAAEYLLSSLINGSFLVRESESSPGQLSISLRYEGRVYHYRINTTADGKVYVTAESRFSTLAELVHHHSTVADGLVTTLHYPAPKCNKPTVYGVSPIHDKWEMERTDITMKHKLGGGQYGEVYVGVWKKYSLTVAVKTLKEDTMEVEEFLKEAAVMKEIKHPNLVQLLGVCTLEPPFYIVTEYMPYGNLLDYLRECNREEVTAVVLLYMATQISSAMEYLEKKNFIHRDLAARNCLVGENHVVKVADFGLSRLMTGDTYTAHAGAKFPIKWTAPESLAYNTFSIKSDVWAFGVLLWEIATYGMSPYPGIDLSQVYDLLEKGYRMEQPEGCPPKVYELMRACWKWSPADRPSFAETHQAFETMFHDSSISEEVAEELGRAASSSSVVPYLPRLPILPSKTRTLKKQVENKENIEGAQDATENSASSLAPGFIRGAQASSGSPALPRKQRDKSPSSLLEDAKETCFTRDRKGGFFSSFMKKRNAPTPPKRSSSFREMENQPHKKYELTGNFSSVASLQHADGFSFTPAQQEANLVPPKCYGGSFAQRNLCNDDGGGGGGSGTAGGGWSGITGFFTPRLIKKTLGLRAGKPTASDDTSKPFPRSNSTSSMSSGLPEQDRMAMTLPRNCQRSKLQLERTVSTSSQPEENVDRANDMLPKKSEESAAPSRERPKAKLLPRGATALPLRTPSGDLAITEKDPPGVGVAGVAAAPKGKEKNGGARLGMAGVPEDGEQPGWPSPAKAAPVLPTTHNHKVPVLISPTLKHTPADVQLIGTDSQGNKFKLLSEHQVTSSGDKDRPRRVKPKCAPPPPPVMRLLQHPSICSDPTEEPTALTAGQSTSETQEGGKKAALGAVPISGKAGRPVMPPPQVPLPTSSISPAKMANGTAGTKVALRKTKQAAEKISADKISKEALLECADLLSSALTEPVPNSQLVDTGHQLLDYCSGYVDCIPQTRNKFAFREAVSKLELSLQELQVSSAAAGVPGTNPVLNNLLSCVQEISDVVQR

[4] = molecular target: Mitogen-activated protein kinase 11 (Homo sapiens, UniProt Q15759); experiment: Inhibition of Mitogen-activated protein kinase p38 beta
Mitogen-activated protein kinase 11, sequence (Q15759 whole entry): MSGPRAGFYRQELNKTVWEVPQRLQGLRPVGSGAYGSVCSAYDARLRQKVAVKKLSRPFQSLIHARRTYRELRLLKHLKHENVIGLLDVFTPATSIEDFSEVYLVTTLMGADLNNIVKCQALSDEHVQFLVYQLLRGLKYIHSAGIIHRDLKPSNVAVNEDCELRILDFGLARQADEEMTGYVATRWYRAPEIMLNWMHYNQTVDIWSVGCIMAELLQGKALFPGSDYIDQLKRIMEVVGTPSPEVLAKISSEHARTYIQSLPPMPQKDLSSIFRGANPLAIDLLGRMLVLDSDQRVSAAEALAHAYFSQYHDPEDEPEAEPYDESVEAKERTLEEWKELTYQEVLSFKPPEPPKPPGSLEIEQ

[5] = molecular target: Mitogen-activated protein kinase 3 (Homo sapiens) (UniProt P27361); experiment: Inhibition of Mitogen-activated protein kinase 3 at 5 uM
[6] = Solubility at pH 7.5; assay type: physicochemical; conditions: buffer
[7] = molecular target: Protein kinase C alpha type (Homo sapiens) (UniProt P17252); experiment: Inhibition of Protein kinase C alpha at 10 uM
[8] = molecular target: Protein kinase C gamma type (Homo sapiens) (UniProt P05129); experiment: Inhibition of Protein kinase C gamma at 10 uM
Mus musculus [9] = experiment: Effect on LPS-induced TNF-alpha production in mice at 50 mg/kg peroral dose; assay type: functional; conditions: route oral
[10] = molecular target: cAMP-dependent protein kinase (PKA) (Homo sapiens) (UniProt P22694+P17612+P22612); experiment: Inhibition of Protein kinase A at 10 uM; assay type: protein assay
Mus musculus [11] = experiment: Effect in murine model of arthritis onset in mice immunized with bovine type II collagen at 3 mg/kg; Histopathology in inflammatory cell; assay type: functional
[12] = molecular target: Mitogen-activated protein kinase 8 (Homo sapiens) (UniProt P45983); experiment: Inhibition of c-Jun N-terminal kinase 1 at 0.5 uM
[13] = molecular target: Protein kinase C beta type (Homo sapiens) (UniProt P05771); experiment: Inhibition of Protein kinase C beta at 10 uM
Mus musculus [14] = experiment: Percentage inhibition of LPS-induced TNF-alpha production in mice at 10 mg/kg peroral dose; assay type: functional; conditions: route oral
Mus musculus [15] = experiment: Effect in murine model of arthritis onset in mice immunized with bovine type II collagen at 30 mg/kg; Number of paws affected; assay type: functional
Mus musculus [16] = experiment: Percent inhibition of TNF-alpha-induced IL-6 production at 50 mg/kg peroral dose in mice; assay type: functional; conditions: route oral
Mus musculus [17] = experiment: Effect on LPS-induced TNF-alpha production in mice at 10 mg/kg peroral dose; assay type: functional; conditions: route oral
Mus musculus [18] = experiment: Effect in murine model of arthritis onset in mice immunized with bovine type II collagen at 3 mg/kg; Number of paws affected; assay type: functional
Mus musculus [19] = experiment: Percentage inhibition of LPS-induced TNF-alpha production in mice at 20 mg/kg peroral dose; assay type: functional; conditions: route oral
Mus musculus [20] = experiment: Percentage inhibition of LPS-induced TNF-alpha production in mice at 50 mg/kg peroral dose; assay type: functional; conditions: route oral
Mus musculus [21] = experiment: Effect in murine model of arthritis onset in mice immunized with bovine type II collagen at 3 mg/kg; Histopathology in interstitial edema; assay type: functional
Mus musculus [22] = experiment: Effect in murine model of arthritis onset in mice immunized with bovine type II collagen at 10 mg/kg; Number of paws affected; assay type: functional
[23] = molecular target: Tyrosine-protein kinase Lck (Homo sapiens) (UniProt P06239); experiment: Inhibition of p59 Lck tyrosine kinase at 10 uM
Tyrosine-protein kinase Lck (Homo sapiens), sequence (P06239 2-509 limits assumed): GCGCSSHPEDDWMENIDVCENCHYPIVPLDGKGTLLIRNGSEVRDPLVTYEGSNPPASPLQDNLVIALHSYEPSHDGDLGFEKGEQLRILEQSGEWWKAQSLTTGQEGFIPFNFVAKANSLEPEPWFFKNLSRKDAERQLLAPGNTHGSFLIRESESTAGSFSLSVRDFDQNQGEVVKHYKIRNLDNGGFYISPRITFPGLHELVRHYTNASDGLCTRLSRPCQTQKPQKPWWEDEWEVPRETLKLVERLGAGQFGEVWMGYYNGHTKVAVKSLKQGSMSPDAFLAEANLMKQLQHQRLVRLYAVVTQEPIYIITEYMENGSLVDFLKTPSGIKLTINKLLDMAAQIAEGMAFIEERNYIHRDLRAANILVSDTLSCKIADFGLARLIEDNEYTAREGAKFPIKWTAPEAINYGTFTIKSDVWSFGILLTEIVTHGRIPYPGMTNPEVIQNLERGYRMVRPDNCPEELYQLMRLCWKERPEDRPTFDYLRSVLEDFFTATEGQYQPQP

Mus musculus [24] = experiment: Percent inhibition of TNF-alpha-induced IL-6 production at 25 mg/kg peroral dose in mice; assay type: functional; conditions: route oral
Mus musculus [25] = experiment: Effect in murine model of arthritis onset in mice immunized with bovine type II collagen at 30 mg/kg; Histopathology in interstitial edema; assay type: functional
Mus musculus [26] = experiment: Effect in murine model of arthritis onset in mice immunized with bovine type II collagen at 10 mg/kg; Histopathology in interstitial edema; assay type: functional
Mus musculus [27] = experiment: Effect on LPS-induced TNF-alpha production in mice at 20 mg/kg peroral dose; assay type: functional; conditions: route oral
Mus musculus [28] = experiment: Effect in murine model of arthritis onset in mice immunized with bovine type II collagen at 30 mg/kg; Histopathology in inflammatory cell; assay type: functional
[29] = molecular target: Receptor tyrosine-protein kinase erbB-2 (Homo sapiens, UniProt P04626); experiment: Inhibition of human epidermal growth factor receptor-2
Mus musculus [30] = experiment: Effect in murine model of arthritis onset in mice immunized with bovine type II collagen at 10 mg/kg; Histopathology in inflammatory cell; assay type: functional
[31] = molecular target: Tyrosine-protein kinase Fyn (Homo sapiens) (UniProt P06241); experiment: Inhibition of p59 Fyn tyrosine kinase at 10 uM
Tyrosine-protein kinase Fyn (Homo sapiens), sequence (P06241 2-537 limits assumed): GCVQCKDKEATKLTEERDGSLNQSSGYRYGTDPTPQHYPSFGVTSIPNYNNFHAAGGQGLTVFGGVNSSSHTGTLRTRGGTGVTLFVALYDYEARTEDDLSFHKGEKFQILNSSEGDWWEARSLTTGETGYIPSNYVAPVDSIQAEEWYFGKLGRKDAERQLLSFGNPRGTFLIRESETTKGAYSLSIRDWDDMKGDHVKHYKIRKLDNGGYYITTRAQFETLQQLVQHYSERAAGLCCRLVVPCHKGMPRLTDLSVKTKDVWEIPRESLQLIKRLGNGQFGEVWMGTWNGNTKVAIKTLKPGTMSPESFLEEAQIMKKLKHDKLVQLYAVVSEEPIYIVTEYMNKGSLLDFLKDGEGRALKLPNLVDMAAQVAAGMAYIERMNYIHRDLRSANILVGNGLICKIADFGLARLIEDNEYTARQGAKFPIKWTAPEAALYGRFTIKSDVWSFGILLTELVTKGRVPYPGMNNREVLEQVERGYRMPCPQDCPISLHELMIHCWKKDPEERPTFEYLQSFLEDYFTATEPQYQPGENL

[32] = molecular target: Epidermal growth factor receptor (Homo sapiens) (UniProt P00533); experiment: Inhibition of Epidermal growth factor receptor at 10 uM
Mus musculus [33] = experiment: Percent inhibition of TNF-alpha-induced IL-6 production at 100 mg/kg peroral dose in mice; assay type: functional; conditions: route oral
Mus musculus [34] = experiment: Percent inhibition of TNF-alpha-induced IL-6 production at 10 mg/kg peroral dose in mice; assay type: functional; conditions: route oral
Mus musculus [35] = species on record: Mus musculus; experiment: animal or person; conditions: po, read-out: Inhibition
Mus musculus [36] = experiment: Effect on LPS-induced TNF-alpha production in mice at 30 mg/kg peroral dose; assay type: functional; conditions: route oral
Mus musculus [37] = species on record: Mus musculus; experiment: animal or person; conditions: po, read-out: Inhibition; remark: listed apart in the source
Mus musculus [38] = experiment: Effect in murine model of arthritis onset in mice immunized with bovine type II collagen at 50 mg/kg; Number of paws affected; assay type: functional
Mus musculus [39] = species on record: Mus musculus; experiment: animal or person; conditions: po, read-out: Inhibition; remark: listed apart in the source
Mus musculus [40] = experiment: Effect in murine model of arthritis onset in mice immunized with bovine type II collagen at 50 mg/kg; Histopathology in inflammatory cell; assay type: functional
Mus musculus [41] = experiment: Effect in murine model of arthritis onset in mice immunized with bovine type II collagen at 50 mg/kg; Histopathology in interstitial edema; assay type: functional

SMILES: Cc1ccc(Oc2ccc(NC(=O)Nc3cc(C(C)(C)C)nn3C)cc2)cc1
IC50 [1]: 160 nM

SMILES: Cn1nc(C(C)(C)C)cc1NC(=O)Nc1ccc(Oc2ccc(C(C)(C)C)cc2)cc1
IC50 [1]: 183 nM

SMILES: Cn1nc(C(C)(C)C)cc1NC(=O)Nc1ccc(Cc2ccncc2)cc1
solubility [2]: 2000 µg/mL (≈ 5500 µM)
inhibition [3]: 3%
IC50 [4]: 110 nM
inhibition [5]: 8%
solubility [6]: 50 µg/mL (≈ 138 µM)
inhibition [7]: 0%
inhibition [8]: 21%
Activity (Mus musculus [9]): 5.1 ng/mL
inhibition [10]: 7%
IC (Mus musculus [11]): 0.8
inhibition [12]: 2%
inhibition [13]: 5%
inhibition in vivo at 10 mg/kg (Mus musculus [14]): -24.5%
Activity (Mus musculus [15]): 0.7
inhibition in vivo at 50 mg/kg (Mus musculus [16]): 84%
Activity (Mus musculus [17]): 46.7 ng/mL
Activity (Mus musculus [18]): 1.4
IC50 (SW1353): 323 nM
inhibition in vivo at 20 mg/kg (Mus musculus [19]): < 47.1%
inhibition in vivo at 50 mg/kg (Mus musculus [20]): < 86.5%
IO (Mus musculus [21]): 0.33
Activity (Mus musculus [22]): 1.9
inhibition [23]: 8%
inhibition in vivo at 25 mg/kg (Mus musculus [24]): 60%
Activity (Mus musculus [25]): 0.2
Activity (Mus musculus [26]): 0.3
Activity (Mus musculus [27]): 19.8 ng/mL
Activity (Mus musculus [28]): 0.38
IC50 [29]: 4.2 nM
Activity (Mus musculus [30]): 0.78
inhibition [31]: 20%
inhibition [32]: 17%

SMILES: Cn1nc(C(C)(C)C)cc1NC(=O)Nc1ccc(Cc2ccc(N)cc2)cc1
IC50 [1]: 290 nM

SMILES: Cn1nc(C(C)(C)C)cc1NC(=O)Nc1ccc(Cc2ccc(NC(=O)CCC(=O)O)cc2)cc1
IC50 [1]: 200 nM
IC50 (SW1353): > 2500 nM

SMILES: Cn1nc(C(C)(C)C)cc1NC(=O)Nc1ccc(OCc2ccncc2)cc1
IC50 [1]: 260 nM

SMILES: CC(=O)Nc1ccc(Oc2ccc(NC(=O)Nc3cc(C(C)(C)C)nn3C)cc2)cc1
IC50 [1]: 235 nM

SMILES: Cn1nc(C(C)(C)C)cc1NC(=O)Nc1ccc(SCc2ccncc2)cc1
IC50 [1]: 140 nM

SMILES: Cn1nc(C(C)(C)C)cc1NC(=O)Nc1ccc(Oc2ccccc2)cc1
IC50 [1]: 270 nM

SMILES: Cn1nc(C(C)(C)C)cc1NC(=O)Nc1ccc(Oc2ccc(N)cc2)cc1
IC50 [1]: 310 nM

SMILES: C[S+]([O-])c1ccc(-c2nc(-c3ccc(F)cc3)c(-c3ccncc3)[nH]2)cc1 (stereo not given) [SB-203580]
inhibition in vivo at 100 mg/kg (Mus musculus [35]): 80%
Activity (Mus musculus [36]): 13 ng/mL
inhibition in vivo at 10 mg/kg (Mus musculus [37]): -1.4%
Activity (Mus musculus [17]): 38 ng/mL
Activity (Mus musculus [38]): 1
inhibition in vivo at 30 mg/kg (Mus musculus [39]): < 65.4%
IC (Mus musculus [40]): 0.63
IO (Mus musculus [41]): 0.25

SMILES: Cn1nc(C(C)(C)C)cc1NC(=O)Nc1ccc(Nc2ccncc2)cc1
IC50 [1]: 420 nM

SMILES: Cn1nc(C(C)(C)C)cc1NC(=O)Nc1ccc(CCc2ccncc2)cc1
IC50 [1]: 430 nM

Continued by falling IC50 [1], values first:

IC50 [1]: 110 nM
SMILES: Cn1nc(C(C)(C)C)cc1NC(=O)Nc1ccc(Oc2ccc(OCc3ccccc3)cc2)cc1

IC50 [1]: 87 nM
IC50 (SW1353): 57 nM
SMILES: Cn1nc(C(C)(C)C)cc1NC(=O)Nc1ccc(Cc2ccc(NC(=O)OC(C)(C)C)cc2)cc1

IC50 [1]: 70 nM
SMILES: CC(=O)Nc1ccc(Cc2ccc(NC(=O)Nc3cc(C(C)(C)C)nn3C)cc2)cc1

IC50 [1]: 69 nM
IC50 (SW1353): 1060 nM
SMILES: CCC(=O)Nc1ccc(Oc2ccc(NC(=O)Nc3cc(C(C)(C)C)nn3C)cc2)cc1

IC50 [1]: 69 nM
IC50 (SW1353): > 2500 nM
SMILES: CCCCOc1ccc(Sc2ccc(NC(=O)Nc3cc(C(C)(C)C)nn3C)cc2)cc1

IC50 [1]: 57 nM
IC50 (SW1353): 235 nM
SMILES: CCCOc1ccc(Sc2ccc(NC(=O)Nc3cc(C(C)(C)C)nn3C)cc2)cc1

IC50 [1]: 54 nM
IC50 (SW1353): 162 nM
SMILES: CC(C)OC(=O)Nc1ccc(Oc2ccc(NC(=O)Nc3cc(C(C)(C)C)nn3C)cc2)cc1

IC50 [1]: 45 nM
IC50 (SW1353): 313 nM
SMILES: CC(C)CC(=O)Nc1ccc(Oc2ccc(NC(=O)Nc3cc(C(C)(C)C)nn3C)cc2)cc1

solubility [2]: 5160 µg/mL (≈ 13000 µM)
solubility [6]: 322 µg/mL (≈ 814 µM)
IC50 [1]: 44 nM
IC50 (SW1353): 584 nM
SMILES: Cn1nc(C(C)(C)C)cc1NC(=O)Nc1ccc(CSc2ccncc2)cc1
inhibition in vivo at 50 mg/kg (Mus musculus [16]): < 64%
inhibition in vivo at 10 mg/kg (Mus musculus [34]): -15%
inhibition in vivo at 25 mg/kg (Mus musculus [24]): 22%

IC50 [1]: 38 nM
IC50 (SW1353): 1750 nM
SMILES: CCC(=O)Nc1ccc(Cc2ccc(NC(=O)Nc3cc(C(C)(C)C)nn3C)cc2)cc1

IC50 [1]: 37 nM
IC50 (SW1353): 170 nM
SMILES: CC(C)CC(=O)Nc1ccc(Cc2ccc(NC(=O)Nc3cc(C(C)(C)C)nn3C)cc2)cc1

IC50 [1]: 35 nM
IC50 (SW1353): 1100 nM
SMILES: Cn1nc(C(C)(C)C)cc1NC(=O)Nc1ccc(Sc2ccc(O)cc2)cc1

solubility [2]: 77 µg/mL (≈ 171 µM)
solubility [6]: 95 µg/mL (≈ 210 µM)
IC50 [1]: 33 nM
IC50 (SW1353): 87 nM
SMILES: CCOC(=O)Nc1ccc(Oc2ccc(NC(=O)Nc3cc(C(C)(C)C)nn3C)cc2)cc1
inhibition in vivo at 50 mg/kg (Mus musculus [16]): 16%

solubility [2]: 1660 µg/mL (≈ 4350 µM)
solubility [6]: 655 µg/mL (≈ 1720 µM)
IC50 [1]: 13 nM
IC50 (SW1353): 95 nM
SMILES: Cn1nc(C(C)(C)C)cc1NC(=O)Nc1ccc(Sc2ccncc2)cc1
inhibition in vivo at 100 mg/kg (Mus musculus [33]): < 90%
inhibition in vivo at 50 mg/kg (Mus musculus [16]): < 77%
